Experimental data reported in US20100168228A1, “NOVEL CHEMOTHERAPEUTIC AGENTS AGAINST INFLAMMATION AND CANCER” (RELIANCE LIFE SCIENCES PVT. LTD., priority 2006, published 2010).

Experiments:
U937 cell line = experiment: Apoptosis by PARP cleavage (FACS), U937; format: cell-based, human; settings: U937, 100 nM, 24 h
Protocol: FIG. 19: Effect of compound 27 on the apoptosis in cells with different p53 status. Extent of apoptosis in different cells was measured by staining the cells for PARP cleavage followed by FACS analysis. Cells were treated with 100 nM of the compound for 24 h and the level of apoptosis was seen. Percentage apoptotic populations are represented as the M2 gated population.
PARP Cleavage Assay using Flow Cytometry: Extent of PARP cleavage is determined using polyclonal antibody specifically recognizing the 85 kDa fragment of cleaved PARP (NSB 699 Novus Biologicals) and can be used as a marker for detecting apoptotic cells. Treated cells were fixed with 70% chilled ethanol and permeabilized for 30 min at RT (PBS+0.5% BSA+0.02% NaN3+0.5% saponin) and stained with anti PARP-FITC (10 μl/10^6 cells) for one hour at RT. Cells were washed twice with wash buffer (PBS+1% heat inactivated FBS) and analysed using FACS.

TNFα = experiment: Bioassay of TNFα production by LPS activated RAW 264.7 macrophages using L929 cell line; format: cell-based; settings: Mus musculus; L929 + ActD + supernatant from LPS + compound (10 μM) treated RAW 264.7 macrophage; crystal violet; mean ± S.D. of triplicate; read-out: PERCENTAGE CELL SURVIVAL ± S.D.
Protocol: Measurement of TNFα in culture medium or supernatant is performed using immunoassay and bioassay. Bioassay was used for the measurement of bioactive TNFα production in the culture medium.
TNFα secretion into the medium by LPS activated macrophage was assayed using L929 tumorigenic murine cells (ATCC) specifically sensitive to TNFα. L929 cell cytotoxicity assay was performed by a modified method (Sano et al., The Journal of Immunology, 1999, 163: 387-395 The Journal of Immunology, 1999, 163: 387-395) based on that described elsewhere (Flick D A, Gifford G E. J Immunol Methods. 1984 Mar. 30; 68(1-2): 167-175). Briefly, the L929 cells (log phase cells) were seeded into a flat bottom 96 well plates (6×10^4/well) in 100 μl volume of RPMI 1640 containing 2% FCS and incubated overnight at 37° C. in a 5% CO2 incubator. A working dilution of the culture supernatant collected from LPS (200 ng/ml) activated macrophage in a volume of 100 μl per well was first tested to obtain 70-75% cytotoxicity equivalent to […] of recombinant TNFα standard to the TNFα sensitive L929 cell line. After incubation of the L929 cells appropriate fixed dilution of the culture supernatant collected from the compound treated (10 μM) wells, containing the LPS stimulated macrophages in a volume of 100 μl with 2 μg/ml Actinomycin D (Act D) was taken and added to the L929 cells and the cells were incubated at room temperature for 15 min followed by 18 h incubation at 37° C. overnight with 5% CO2. On the next day the medium was removed and the cells were stained with 0.2% (w/v) crystal violet for 10 minutes. The wells were gently rinsed with water, and 33% acetic acid (100 μl/well) was added to extract the retained crystal violet. The absorbance at 570 nm was finally measured.
Tumor necrosis factor-α can cause direct cytotoxicity to the lung fibroblast cell line (L929). Bioassay of TNF α is designated on the basis of this cytotoxicity of TNF α, which can be used for the identification of murine TNF α activity in tissue culture supernatants. Culture supernatant collected from the synthetic molecules treated well containing LPS stimulated macrophage modulated the extent of cytotoxicity to the L929 cells (see Table 1).

NF-κB = NF-κB activation assay (Transfactor ELISA on nuclear extracts), Jurkat; format: cell-based, human; settings: pretreated 3 h
Protocol: Cell pellet was resuspended in lysis buffer (10 mM HEPES, pH 7.9, 1.5 mM MgCl2, 10 mM KCl, 1 mM PMSF, 1 mMDTT, 0.5% NP 40, 0.1 mM EGTA and 0.1 mM EDTA) and allowed to swell on ice for 15 min, followed by centrifugation at 3300×g for 20 min. The cell pellet was resuspended in a volume of lysis buffer equal to the cell pellet volume. The cell suspension was slowly drawn down into a syringe and ejected the content in a single stroke. Disrupted cells were incubated for 15 min on ice, and the disrupted cell suspension was centrifuged at 10,000×g for 20 min at 4° C. Nuclear pellet was resuspended in a volume of extraction buffer (20 mM HEPES; pH 7.9, 25% glycerol, 1.5 mM MgCl2, 420 mM NaCl, 0.1 mM EDTA, 0.1 mM EGTA, 1 mM PMSF and 1 mM DTT) and incubated on ice for 30 min. The nuclear suspension was centrifuged at 21,000×g for 15 min at 4° C. and the supernatant was collected as nuclear extract and stored at −70° C. Protein concentration was estimated using standard Bradford method.
To determine NF-κB activation, transcription profiling was done with the BD Mercury Transfactor kit obtained from BD Biosciences. This method provides rapid, high-throughput detection of specific transcription factors eg NFκB in the nuclear extract. Using an enzyme-linked immunosorbent assay (ELISA)-based format, the Transcription Factor kit detects the DNA binding by specific transcription factors.
The assay was performed by using wells coated with oligonucleotides having the consensus DNA binding sites for the specific transcription factors. 50 μg of the nuclear extract proteins were incubated in the wells precoated with their specific oligonucletides, and allowed the activated NFκB to bind to their consensus sequence. Bound transcription factor was detected by a specific Primary Antibody. A horseradish peroxidase conjugated Secondary Antibody was then used to detect the bound Primary Antibody. After addition of the substrate, the Absorbance was recorded at 655 nm. […]

Jurkat cells = experiment: Measurement of reactive oxygen intermediates (ROI) by flow cytometry; format: cell-based, human; settings: pretreated 1 h, TNF 1 nM 4 h
Protocol: The production of ROI in cells treated with TNFα or LPS was determined by flow cytometer as described by (Manna, S. K. et. al., J. Immunol. (1999) 162(3):1510-1518). Briefly Jurkat cells (5×10^5 cells in one ml) were incubated either with RPMI 1640 medium supplemented with 10% FBS or with complete media containing different concentrations of CAMVE for 1 h at 37° C. Cells were then stimulated with 1 nM of TNF for 4 h. After incubation, the cells were washed with D-PBS, and resuspended in 1 ml D-PBS. To detect ROI production, cells were exposed to Dihydrorhodamine 123 (5 mM stock) at a final concentration of 1 μM for 1 hr at 37° C. with moderate shaking (100 rpm) and then washed with D-PBS three times and resuspended in 1 ml of D-PBS. Rhodamine 123 fluorescence intensity resulting from Dihydrorhodamine 123 oxidation was measured by FACS Calibur (Becton Dickinson) with excitation at 488 nm and was detected between […]. Data was analyzed using Cell Quest software (Becton Dickinson).

Q: How did the “level of apoptosis (PARP cleavage)” value (U937 cell line) turn out when COc1cc([C@@H]2Oc3c(OC)cc(/C=C/C(=O)O)cc3[C@H]2C(=O)O)ccc1O [compound 27, 5-[(E)-2-carboxyvinyl]-2β-(4-hydroxy-3-methoxyphenyl)-7-methoxy-2,3-dihydro-1-benzofuran-3α-carboxylic acid] was run?
A: does not show induction of apoptosis

Q: And the viability at 10 µM (TNFα)?
A: 46.5 ± 1.02%

Q: How did the “TNF induced NF-κB activation” value (NF-κB; 0.1 nM TNF 30 min) turn out when COC(=O)c1ccc(OC(=O)/C=C/c2ccc(O)c(O)c2)c(OC)c1 [compound 1, Methyl 4-{[(2E)-3-(3,4-dihydroxyphenyl)prop-2-enoyl]oxy}-3-methoxybenzoate] was run?
A: inhibited this activation in a concentration dependent manner

Q: What about the “concentration of maximum inhibition of TNF induced NF-κB activation” value (NF-κB; 0.1 nM TNF 30 min) of the same compound?
A: 15 µM

Q: And the “LPS induced NF-κB activation” value (NF-κB; 100 ng/ml SA-LPS 30 min)?
A: blocked by CAMVE

Q: What about the viability at 10 µM (TNFα) of the same compound?
A: 73.2 ± 1.77%

Q: And the “TNF induced ROI generation” value (Jurkat cells)?
A: suppressed on pretreatment of cells with CAMVE in a dose dependent fashion
